Source: patent US12071436B2, “Anti-parasitic compounds and uses thereof” (Memorial Sloan-Kettering Cancer Center, priority 2016, dated 2024)
Read-outs that look alike come from different tables or passages of the source.

How the values were obtained:
[1] = Caco-2 bi-directional permeability; type: in vitro ADME; conditions: human, Caco-2, pH 7.4
Protocol: To evaluate the bi-directional Caco-2 permeability of compounds 21 and 37, Caco-2 cells were grown in Dulbecco's Modified Eagle Medium (DMEM) (20% Fetal bovine serum (FBS)) until 85-90% confluence. After attaining required confluence, cells were trypsinized and seeded into 24 well millcell plates at a density of 0.6×10^5 cells/insert. The plates were maintained for 21 days at 37° C. in CO2 incubator with change of medium every alternative day. Monolayer integrity was monitored by measuring Trans-epithelial electrical resistance (TEER) from day 15. Caco-2 cell monolayer was washed twice with HBSS and incubated for 30 min in CO2 incubator. TEER values were measured and wells showing TEER values above 230 ohms·cm2 were taken for experiments. Bi-directional permeability study was initiated by adding appropriate volume of HBSS containing the test compounds or probe P-gp substrate loperamide to either the apical (A-B transport) or basal side (B-A transport) of the monolayer. At selected time points (0, 15, 30, 60 and 90 mins) an aliquot of 50 μL was collected from the receiver compartment for determination of test compound concentrations. The volume withdrawn was replaced immediately with plain HBSS buffer (pH 7.4). TEER was measure at the end of the experiment to test the post experiment monolayer integrity. […]

[2] = Cytotoxicity screening in MRC5 (CellTiter Glo, fluorescence microscopy); type: cell-based; conditions: human, MRC5 cells
Protocol: To evaluate the cytotoxicity of selected compounds, cell viability assays (CellTiter Glo) were conducted. Each compound (compound 21 or compound 37) was plated in triplicate starting at their respective stock concentration. They were serially diluted column-wise for ten 3× dilutions using DMSO as the diluent. Staurosporine was used as positive control for DRC (dose response curve), and was plated starting at 1.25 mM. This plate was used as a source plate to make the assay plates by transferring 0.1 μl into 25 μl assay volume to reach the right working concentration for each compound. HepG2 and MRC5 were plated at a density of 1500 cells/25 μl in well in the assay plate and allowed to settle overnight. 0.1 μL of compounds was then transferred from the source plate, into the cell assay plates. The cells were left to incubate with the compounds for 48 hours, after which, 25 μL of Promega Cell Titer-Glo was added to each well, and allowed to incubate at room temperature with shaking for 20 minutes. RLU's (Relative Light Units) for each well were then recorded on a BioTek Synergy NEO. Fluorescence microscopy was also used to evaluate the cytotoxicity of selected compounds. Cells were plated at a density of 1500 cells/25 μl in well in a 384 wells plate the day before incubation with the drugs. The following day, 0.1 μl of the source plate are added to the assay plate. Then, 25 μl of a fluorophores mixture containing Hoechst 33342, Syto17 diluted in Eagle's Minimum Essential Medium (EMEM) was added to each well. Plates are read after 48 hours of incubation in the ImageXpress instrument (Molecular Devices) using the appropriate filters.

[3] = Hepatic microsomal stability, 1 mg/mL hepatic microsomes; type: in vitro ADME; conditions: C57BL/6, mouse, liver microsomes, pH 7.4, 1 μM compound, NADPH, read-out: microsomal stability (t1/2, mouse): 1 mg/mL hepatic microsomes
Protocol: To evaluate the hepatic microsomal stability of selected compounds, 1 μM of each selected compound was incubated with 1 mg/mL hepatic microsomes in 100 mM KPi, pH 7.4. The microsomes were obtained from C57BL/6 mice. The reaction was initiated by adding NADPH (1 mM final concentration). Aliquots were removed at 0, 5, 10, 20, 40, and 60 minutes and added to acetonitrile (5× v:v) to stop the reaction and precipitate the protein. NADPH dependence of the reaction is evaluated with —NADPH samples. At the end of the assay, the samples were centrifuged through a Millipore Multiscreen Solvinter 0.45 micron low binding PTFE hydrophilic filter plate and analyzed by LC-MS/MS. Data was log transformed and represented as half-life.

[4] = Parallel artificial membrane permeability assay (PAMPA), commercial kit; type: in vitro ADME; conditions: PBS, room temperature, read-out: Parallel artificial membrane permeability assay (PAMPA) Permeability (log Pe [cm/s]) (converted)
Protocol: To evaluate the Parallel Artificial Membrane Permeability Assay (PAMPA) of selected compounds, an assessment of permeability was done using a commercial PAMPA kit. Selected compounds were evaluated over a range of concentrations by 300 μl of PBS containing the compound to the bottom donor plate. Selected compounds were from DMSO stocks and the final DMSO concentration in the donor wells was one percent. 200 μl of blank PBS was added to the top receiver plate. The plates were allowed to incubate at room temperature. After 5 hours, aliquots were taken from the donor and receiver plates and the concentration of drug was determined. Compound permeability was calculated using the equation [formula] where Pe is expressed in units of cm/s, CA(t) is drug concentration in the acceptor at time t, VD is donor well volume, VA is acceptor well volume, A is the area of the filter (0.3 cm^2), t is time in seconds, and Ceq=[CD(t)*VD+CA(t)*VA]/(VD+VA).

[5] = Plasma protein binding by equilibrium dialysis; type: in vitro ADME; conditions: mouse, 37° C.
Protocol: To evaluate the plasma protein binding of selected compounds, equilibrium dialysis was used. All samples of the selected compounds were tested in triplicate using the RED Rapid Equilibrium Dialysis Device (Thermo Scientific). The initial drug concentration in the plasma chamber was 5 μM and phosphate buffered saline was added to the receiver chamber. The plate was covered and allowed to shake in a 37° C. incubator for 6 hours. 25 μl was sampled from the plasma and PBS chambers which were then diluted with either blank PBS or plasma to achieve a 1:1 ratio or plasma:PBS for all samples. The concentration of drug in the plasma and PBS chambers were determined by LC-MS/MS. The fraction bound was calculated as ([plasma]−[PBS])/[plasma].

[6] = read-out: MRC5 IC50, Cell Count
[7] = read-out: MRC5 IC50, Cellular ATP
[8] = read-out: MRC5 IC50, Membrane Integrity

## CN(C)CC#Cc1cccc(-c2nc(C(=O)NCc3ccc4c(c3)OCO4)cc3c2[C@@H](CCO)N([S@+]([O-])C(C)(C)C)C3)c1 [compound 21, (R)-N-(Benzo[d][1,3]dioxol-5-ylmethyl)-2-((R)-tert-butylsulfinyl)-4-(3-(3-(dimethyl-amino)prop-1-yn-1-yl)phenyl)-3-(2-hydroxyethyl)-2,3-dihydro-1H-pyrrolo[3,4-c]pyridine-6-carboxamide]
[1]
  efflux ratio at 90 min: 24.9
[2]; [6]
  IC50 at 48 h: 63.7 µM
[2]; [7]
  IC50 at 48 h: 44.7 µM
[2]; [8]
  IC50 at 48 h: 24.4 µM
[3]
  half-life at 1 μM: 3.9 min
[4]
  Papp at 5 h: 0.055 ×10⁻⁶ cm/s
[5]
  fraction unbound at 6 h, 5 μM: 0.045

## CN(C)CC#Cc1cccc(-c2nc(C(=O)N[C@@H]3CCN(Cc4ccccc4)C3)cc3c2[C@@H](CCO)N([S@+]([O-])C(C)(C)C)C3)c1 [compound 37, (R)-N-((R)-1-Benzylpyrrolidin-3-yl)-2-((R)-tert-butylsulfinyl)-4-(3-(3-(dimethylamino)prop-1-yn-1-yl)phenyl)-3-(2-hydroxyethyl)-2,3-dihydro-1H-pyrrolo[3,4-c]pyridine-6-carboxamide]
[1]
  efflux ratio at 90 min: 13.2
[2]; [6]
  IC50 at 48 h: 64.2 µM
[2]; [7]
  IC50 at 48 h: 54.1 µM
[2]; [8]
  IC50 at 48 h: 13.4 µM
[3]
  half-life at 1 μM: 1.3 min
[4]
  Papp at 5 h: 5.75 ×10⁻⁶ cm/s
[5]
  fraction unbound at 6 h, 5 μM: 0.081
